“Also recorded” adds a separate entry of the source. Where two headings read alike, the source gives them in different places.
Assays:
Aβ fibrils [1] = target: T1, Aβ fibrils (Homo sapiens, UniProt P05067); conditions: read-out: Kd Aβ; fibril saturation binding; cited from earlier work
α-syn fibrils [2] = target: T2, α-syn fibrils (Homo sapiens, UniProt P37840); conditions: read-out: Kd α-syn; fibril saturation binding; cited from earlier work
[3] = target: tau fibrils (Tau-441, 2N4R) (Homo sapiens, UniProt P10636); assay: Tau fibril/ligand saturation binding assay; conditions: for α-syn versus tau binding selectivity: from Kd tau and Kd α-syn
Sequence of tau fibrils (Tau-441, 2N4R) (P10636 1-441 isoform P10636-8): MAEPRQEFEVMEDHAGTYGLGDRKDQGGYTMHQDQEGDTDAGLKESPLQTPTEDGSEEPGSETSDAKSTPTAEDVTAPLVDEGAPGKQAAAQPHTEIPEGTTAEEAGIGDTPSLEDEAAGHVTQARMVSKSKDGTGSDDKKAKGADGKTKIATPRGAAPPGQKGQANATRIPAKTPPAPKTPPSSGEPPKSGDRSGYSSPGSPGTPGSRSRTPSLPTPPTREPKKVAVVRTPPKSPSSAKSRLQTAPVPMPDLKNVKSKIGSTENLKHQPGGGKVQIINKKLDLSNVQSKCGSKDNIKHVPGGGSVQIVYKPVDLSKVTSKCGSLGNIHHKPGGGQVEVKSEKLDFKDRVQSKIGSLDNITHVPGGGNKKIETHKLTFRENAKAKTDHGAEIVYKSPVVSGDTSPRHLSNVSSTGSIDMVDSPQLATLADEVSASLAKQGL

[4] = Absorption/emission maxima and fluorescence quantum yield of free ligand in PBS; assay type: physicochemical; conditions: for Absmax / Emmax: free ligand in PBS
α-syn fibrils [5] = target: T2, α-syn fibrils; assay: α-Synuclein fibril/ligand saturation binding assay; conditions: for Kd: Kd α-syn, mean ± SD (n = 3); for selectivity for α-syn fibrils compared with amyloid-β (Aβ) and tau fibrils: abstract; for Selectivity α-syn v/s Aβ: from Kd Aβ and Kd α-syn
α-syn fibrils [6] = target: T2, α-syn fibrils; assay: Fluorescent properties of ligand-α-syn fibril complex; assay type: physicochemical
Aβ (1–40) fibrils = Aβ (1–40) fibrils (Homo sapiens, UniProt P05067); assay: Aβ fibril/ligand saturation binding assay
Sequence of Aβ (1–40) fibrils (P05067 672-711): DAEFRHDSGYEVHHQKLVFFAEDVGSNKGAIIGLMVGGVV

Aβ fibrils [7] = target: T1, Aβ fibrils; assay: Fluorescent properties of ligand-Aβ fibril complex; assay type: physicochemical
[8] = target: Aβ plaques in human AD brain tissue (Homo sapiens, UniProt P05067); assay: Fluorescent staining of human AD brain tissue sections; conditions: cortical sections, co-stained with antibody 4G8
Sequence of Aβ plaques in human AD brain tissue (P05067 672-711 limits assumed): as the sequence (P05067 672-711) above

[9] = Table 1, synthetic α-syn fibrils 2.5 μM, 1 hour
[10] = Table 3 and text, α-syn fibrils, saturation binding

T1 sequence (P05067 672-711): as above

SMILES | Kd (Aβ fibrils [1]) | Kd (α-syn fibrils [2]) | Kd [3] | α-syn versus tau binding selectivity [3] | Fluorescence quantum yield Free ligand [4] | Absmax [4] | Emmax [4] | Kd (α-syn fibrils [5]; [9]) | Kd (α-syn fibrils [5]; [10]) | selectivity for α-syn fibrils compared with amyloid-β (Aβ) and tau fibrils (α-syn fibrils [5]) | Selectivity α-syn v/s Aβ (α-syn fibrils [5]) | Absmax Ligand + α-syn (α-syn fibrils [6]) | Emmax Ligand + α-syn (α-syn fibrils [6]) | Fluorescence quantum yield Ligand + α-syn (α-syn fibrils [6]) | Kd (Aβ (1–40) fibrils) | Absmax Ligand + Aβ (Aβ fibrils [7]) | Emmax Ligand + Aβ (Aβ fibrils [7]) | Fluorescence quantum yield Ligand + Aβ (Aβ fibrils [7]) | labeling of Aβ pathology in AD brain sections [8]
CN(C)c1ccc(-c2cc(-c3ccnc(Br)c3)[nH]n2)cc1 [[^11C]MODAG-001] | 20 ± 10 nM | 0.6 ± 0.1 nM |  |  |  |  |  |  |  |  |  |  |  |  |  |  |  |  | 
COc1cc(/C=C/C=C2\Cc3ccccc3C2=O)ccc1O [compound 8, (E)-2-((E)-3-(4-Hydroxy-3-methoxyphenyl)allylidene)-2,3-dihydro-1H-inden-1-one] |  |  | 388 ± 38.2 nM | 43 x | 0.0079 | 405 | 542 | 9 ± 0.5 nM | 9 ± 0.5 nM | greater than 10 x | 15.6 x | 446 | 585 | 0.078 | 140 ± 4.2 nM | 441 | 579 | 0.1363 | mostly dense core Aβ plaques in the ligand channel (column II) but not the finer aggregates composed of diffuse plaques; also recorded: highlights mostly dense core Aβ plaques
COc1cc(-c2ccc(/C=C/C=C3\Cc4ccccc4C3=O)cc2)ccc1O [compound 29, (E)-2-((E)-3-(4'-Hydroxy-3'-methoxy-[1,1'-biphenyl]-4-yl)allylidene)-2,3-dihydro-1H-inden-1-one] |  |  |  |  | 0.0052 | 397 | 551 | 66.7 ± 2 nM |  |  | 0.8 x | 428 | 583 | 0.0766 | 52.5 ± 3.1 nM | 424 | 574 | 0.1543 | 
O=C(O)c1ccc(-c2ccc(/C=C/C=C3\Cc4ccc(O)cc4C3=O)cc2)cc1 [compound 32, 4'-((E)-3-((E)-6-Hydroxy-1-oxo-1,3-dihydro-2H-inden-2-ylidene)prop-1-en-1-yl)-[1,1'-biphenyl]-4-carboxylic acid] |  |  | 579 ± 30.6 nM | 30.8 x | 0.0104 | 392 | 563 |  | 18.8 ± 4 nM | greater than 10 x |  | 448 | 586 | 0.1125 | 491 ± 58.9 nM | 443 | 583 | 0.2498 | 
O=C(O)c1ccc(-c2ccc(/C=C/C=C3C(=O)c4ccccc4C3=O)cc2)s1 [compound 35, (E)-5-(4-(3-(1,3-Dioxo-1,3-dihydro-2H-inden-2-ylidene)prop-1-en-1-yl)phenyl)thiophene-2-carboxylic acid] |  |  |  |  | 0.0097 | 414 | 556 | 74.2 ± 14.3 nM | 74.2 ± 14.3 nM |  | 4.5 x | 425 | 601 | 0.0878 | 337 ± 11.7 nM | 437 | 595 | 0.2058 | 
COc1cc(-c2ccc(/C=C3/Cc4ccccc4C3=O)s2)ccc1O [compound 39, (Z)-2-((5-(4-Hydroxy-3-methoxyphenyl)thiophen-2-yl)methylene)-2,3-dihydro-1H-inden-1-one] |  |  |  |  | 0.0031 | 403 | 575 | 93.1 ± 13.8 nM | 93.1 ± 13.8 nM |  | 2.8 x | 439 | 589 | 0.0435 | 257 ± 20.3 nM | 448 | 586 | 0.1377 | 
COc1ncc(-c2ccc(/C=C3/Cc4ccccc4C3=O)s2)c(OC)n1 [compound 42, (Z)-2-((5-(2,4-Dimethoxypyrimidin-5-yl)thiophen-2-yl)methylene)-2,3-dihydro-1H-inden-1-one] |  |  |  |  | 0.0050 | 387 | 547 | 92.9 ± 6.3 nM | 92.9 ± 6.3 nM |  | 2.7 x | 465 | 572 | 0.0596 | 250 ± 37.1 nM | 478 | 581 | 0.1130 | 

— publication PMC8770581 (ChemMedChem, 2021)
